The assay addresses Gamma-secretase. The assay is described as follows: Inhibition of Gamma-secretase. The format is protein-complex assay, Homo sapiens.

The values that follow come from ChEMBL document CHEMBL1138382, “Tetrahydroquinoline sulfonamides as gamma-secretase inhibitors” (Bioorg Med Chem Lett, 2007).

On to `CCN(CCCN1CCCC1)C(=O)OCC1CCc2ccccc2N1S(=O)(=O)c1ccc(Cl)cc1` (centres undefined), for which the IC50 turned out to be 172 nM.

Consider `O=C(NCCc1ccccc1)OCC1CCc2ccccc2N1S(=O)(=O)c1ccc(Cl)cc1` (centres undefined), for which 1100 nM corresponded to half-maximal inhibition (IC50). The result for `CCN(CCC1CCCN1C)C(=O)OCC1CCc2ccccc2N1S(=O)(=O)c1ccc(Cl)cc1` (centres undefined) reads 253 nM; that for `O=C(OCC1CCc2c(F)cc(F)cc2N1S(=O)(=O)c1ccc(Cl)cc1)N1CCC(N2CCCCC2)CC1` (centres undefined), 219 nM; that for `CN(C)C1CCN(C(=O)OCC2CCc3ccccc3N2S(=O)(=O)c2ccc(Cl)cc2)CC1` (centres undefined), 629 nM.

Turning to `O=C(OCC1CCc2ccccc2N1S(=O)(=O)c1ccc(Cl)cc1)N1CCC(N2CCCC2)CC1` (centres undefined), the IC50 is 290 nM. The result for `O=C(OCC1CCc2ccccc2N1S(=O)(=O)c1ccc(Cl)cc1)N1CCN(CCO)CC1` (centres undefined) reads 299 nM; that for `O=C(OCC1CCc2ccccc2N1S(=O)(=O)c1ccc(Cl)cc1)N1CCC(N2CCCCCC2)CC1` (centres undefined), 255 nM; that for `CCN(Cc1ccncc1)C(=O)OCC1CCc2ccccc2N1S(=O)(=O)c1ccc(Cl)cc1` (centres undefined), 88 nM. The result for `O=C(NCc1ccncc1)OCC1CCc2ccccc2N1S(=O)(=O)c1ccc(Cl)cc1` (centres undefined) reads 1640 nM; that for `O=C(OCC1CCc2ccccc2N1S(=O)(=O)c1ccc(Cl)cc1)N1CCC(N2CCCCC2)CC1` (single isomer, unassigned; enantiomer a), 39 nM; that for `O=C(OCC1CCc2ccccc2N1S(=O)(=O)c1ccc(Cl)cc1)N1CCC(N2CCCCC2)CC1` (single isomer, unassigned; enantiomer b), over 1000 nM.

In the case of `NC1CCN(C(=O)OCC2CCc3ccccc3N2S(=O)(=O)c2ccc(Cl)cc2)CC1` (centres undefined), the IC50 stood at 680 nM. In the case of `O=C(OCC1CCc2ccc(F)cc2N1S(=O)(=O)c1ccc(Cl)cc1)N1CCC(N2CCCCC2)CC1` (centres undefined) it was 56 nM; in that of `O=C(OCC1CCc2c(F)ccc(F)c2N1S(=O)(=O)c1ccc(Cl)cc1)N1CCC(N2CCCCC2)CC1` (centres undefined), 217 nM; in that of `O=C(NCc1ccc([N+](=O)[O-])cc1)OCC1CCc2ccccc2N1S(=O)(=O)c1ccc(Cl)cc1` (centres undefined), 2960 nM.

`CCN(Cc1ccnc(N)c1)C(=O)OCC1CCc2ccccc2N1S(=O)(=O)c1ccc(Cl)cc1` (centres undefined) came in with an IC50 of 580 nM. The result for `O=C(OCC1CCc2ccccc2N1S(=O)(=O)c1ccc(Cl)cc1)N1CCC(N2CCCCC2)CC1` (stereo in doubt; 26) reads 73 nM; that for `CCCN1CCN(C(=O)OCC2CCc3ccccc3N2S(=O)(=O)c2ccc(Cl)cc2)CC1` (centres undefined), 440 nM.

As for `O=C(NCCO)OCC1CCc2ccccc2N1S(=O)(=O)c1ccc(Cl)cc1` (centres undefined), the IC50 amounted to 4490 nM. Consider `O=C(OCC1CCc2ccccc2N1S(=O)(=O)c1ccc(Cl)cc1)N1CCN(C2CCCCC2)CC1` (centres undefined), for which the IC50 was determined as 540 nM. As to `CN1CCCC1CCNC(=O)OCC1CCc2ccccc2N1S(=O)(=O)c1ccc(Cl)cc1` (centres undefined), the IC50 was 504 nM. The IC50 values of the last two compounds are within 1.5-fold of each other.

Turning to `O=C(NCCCN1CCCC1)OCC1CCc2ccccc2N1S(=O)(=O)c1ccc(Cl)cc1` (centres undefined), half-maximal inhibition (IC50) required 394 nM. Turning to `O=C(OCC1CCc2cc(F)ccc2N1S(=O)(=O)c1ccc(Cl)cc1)N1CCC(N2CCCCC2)CC1` (centres undefined), the IC50 is over 1000 nM.

The term IC50 denotes the concentration that inhibits the measured activity by half. The low end stands for higher potency, the high end for lower potency.
